IC50 data for 50 molecules are collected here from ChEMBL document CHEMBL5729561, “Compounds and uses thereof” (2023).

The nature of the test: On day 0 cells were seeded in 30 μL media into each well of 384-well cell culture plates. The seeding density was 8000 cells/well. On day 1, cells were treated with 30 nL DMSO or 30 nL of 3-fold serially DMSO-diluted compounds (10 points in duplicates with 1 μM as final top dose). Subsequently plates were incubated for 6 hours in a standard tissue culture incubator and equilibrated at room temperature for 15 minutes. Nanoluciferase activity was measured by adding 15 μL of freshly prepared Nano-Glo Luciferase Assay Reagent (Promega N1130), shaking the plates for 10 minutes and reading the bioluminescence using an EnVision reader. The format is cell-based.
The IC50 is the point on the concentration scale where inhibition reaches its midpoint. The low end stands for inhibition by little substance, the high end for a need for much substance. With `COc1cc(-c2cn(C)c(=O)c3cnccc23)cc(OC)c1CN(C)CCc1cn(CCOc2ccc3c(c2)C(=O)N(C2CCC(=O)NC2=O)C3=O)nn1` (stereo not given), the half-inhibitory concentration (IC50) entry was “in the range around 55 nM”. The result for `COc1cc(-c2cn(C)c(=O)c3cnccc23)cc(OC)c1ON1CCC2(CCN(C(=O)CCOCCOc3cccc4c3C(=O)N(C3CCC(=O)NC3=O)C4=O)CC2)C1` (stereo not given) reads less than 10 nM. The entry for `COc1cc(-c2cn(C)c(=O)c3cnccc23)cc(OC)c1CN(C)CC1CC2(C1)CN(C(=O)CCOCCOc1cccc3c1C(=O)N(C1CCC(=O)NC1=O)C3=O)C2` (stereo not given) is “in the range around 55 nM”. In the case of `COc1cc(-c2cn(C)c(=O)c3cnccc23)cc(OC)c1CN1CCC2(CC1)CN(C(=O)CCOCCOc1cccc3c1C(=O)N(C1CCC(=O)NC1=O)C3=O)C2` (stereo not given), the half-maximal inhibitory concentration (IC50) entry is “in the range around 55 nM”.

Take `COc1cc(-c2cn(C)c(=O)c3cnccc23)cc(OC)c1CN1CCC2(CC1)CN(C(=O)COc1cccc3c1C(=O)N(C1CCC(=O)NC1=O)C3=O)CCO2` (stereo not given): the IC50 result is “in the range around 55 nM”. With `COc1cc(-c2cn(C)c(=O)c3cnccc23)cc(OC)c1CN1CCC12CCN(C(=O)CCOCCOc1cccc3c1C(=O)N(C1CCC(=O)NC1=O)C3=O)C2` (stereo not given), the IC50 result was “in the range around 550 nM”.

For `COc1cc(-c2cn(C)c(=O)c3cnccc23)cc(OC)c1CN(C)CCc1cn(CCOCCOc2ccc3c(c2)C(=O)N(C2CCC(=O)NC2=O)C3=O)nn1` (stereo not given), the IC50 entry was “in the range around 55 nM”. The result for `COc1cc(-c2cn(C)c(=O)c3cnccc23)cc(OC)c1CN1CC(S(=O)(=O)NCCCCCCNc2ccc3c(c2)C(=O)N(C2CCC(=O)NC2=O)C3=O)C1` (stereo not given) reads less than 10 nM; that for `COc1cc(-c2cn(C)c(=O)c3cnccc23)cc(OC)c1CN1CC2(CCN(C(=O)CCOCCOc3ccc4c(c3)C(=O)N(C3CCC(=O)NC3=O)C4=O)C2)C1` (stereo not given), less than 10 nM.

Regarding `COc1cc(-c2cn(C)c(=O)c3cnccc23)cc(OC)c1CN1CCC(OCc2cn(-c3ccc4c(c3)C(=O)N(C3CCC(=O)NC3=O)C4=O)nn2)CC1` (stereo not given), the concentration for half-maximal inhibition (IC50) entry is “in the range around 55 nM”. Turning to `COc1cc(-c2cn(C)c(=O)c3cnccc23)cc(OC)c1CN(C)CC12CC(NC(=O)CCCCOc3cccc4c3C(=O)N(C3CCC(=O)NC3=O)C4=O)(C1)C2` (stereo not given), the IC50 is less than 10 nM.

For `COc1cc(-c2cn(C)c(=O)c3cnccc23)cc(OC)c1CN1CCCC(OCc2cn(CCCCCOc3ccc4c(c3)C(=O)N(C3CCC(=O)NC3=O)C4=O)nn2)C1` (stereo not given), the IC50 is less than 10 nM. For the molecule `COc1cc(-c2cn(C)c(=O)c3cnccc23)cc(OC)c1CN1CC(CC(=O)NCCCCCCCCNc2cccc3c2C(=O)N(C2CCC(=O)NC2=O)C3=O)C1` (stereo not given), the 50% inhibitory concentration (IC50) is less than 10 nM.

With `COc1cc(-c2cn(C)c(=O)c3cnccc23)cc(OC)c1CN1CCN(C(=O)CCCOc2cccc3c2C(=O)N(C2CCC(=O)NC2=O)C3=O)CC1` (stereo not given), the IC50 was less than 10 nM. With `COc1cc(-c2cn(C)c(=O)c3cnccc23)cc(OC)c1CN1CCC2(C[C@H]2NC(=O)CCOCCOc2cccc3c2C(=O)N(C2CCC(=O)NC2=O)C3=O)C1` (stereo not given in full), the IC50 result is “in the range around 55 nM”. The entry for `COc1cc(-c2cn(C)c(=O)c3cnccc23)cc(OC)c1CN(C)Cc1cn(CCCCCOc2ccc3c(c2)C(=O)N(C2CCC(=O)NC2=O)C3=O)nn1` (stereo not given) is “in the range around 55 nM”; for `COc1cc(-c2cn(C)c(=O)c3cnccc23)cc(OC)c1CN(C)CC1CC12CCN(C(=O)CCOCCOc1ccc3c(c1)C(=O)N(C1CCC(=O)NC1=O)C3=O)CC2` (stereo not given) it is “in the range around 55 nM”; for `COc1cc(-c2cn(C)c(=O)c3cnccc23)cc(OC)c1CN1CC(S(=O)(=O)NCCCCNc2ccc3c(c2)C(=O)N(C2CCC(=O)NC2=O)C3=O)C1` (stereo not given) it is “in the range around 55 nM”. Regarding `COc1cc(-c2cn(C)c(=O)c3cnccc23)cc(OC)c1CN(C)CC1CC12CCN(C(=O)CCOCCOc1cccc3c1C(=O)N(C1CCC(=O)NC1=O)C3=O)CC2` (stereo not given), the IC50 result is “in the range around 55 nM”.

In the case of `COc1cc(-c2cn(C)c(=O)c3cnccc23)cc(OC)c1CN(C)C1CC2CN(C(=O)CCOCCOc3cccc4c3C(=O)N(C3CCC(=O)NC3=O)C4=O)CC2C1` (stereo not given), the half-inhibitory concentration (IC50) entry is “in the range around 55 nM”. Regarding `COc1cc(-c2cn(C)c(=O)c3cnccc23)cc(OC)c1CN1CC(C(=O)N(C)CCCCCNc2cccc3c2C(=O)N(C2CCC(=O)NC2=O)C3=O)C1` (stereo not given), the IC50 is less than 10 nM. Turning to `COc1cc(-c2cn(C)c(=O)c3cnccc23)cc(OC)c1CN1CCC(OCc2cn(CCOc3ccc4c(c3)C(=O)N(C3CCC(=O)NC3=O)C4=O)nn2)CC1` (stereo not given), the IC50 entry was “in the range around 55 nM”. The figure for `COc1cc(-c2cn(C)c(=O)c3cnccc23)cc(OC)c1CN(C)CC1CC2(CCN(C(=O)CCOCCOc3ccc4c(c3)C(=O)N(C3CCC(=O)NC3=O)C4=O)CC2)O1` (stereo not given) is less than 10 nM; for `COc1cc(-c2cn(C)c(=O)c3cnccc23)cc(OC)c1CN1CC(C)(C(=O)NCCCCCCCCNc2cccc3c2C(=O)N(C2CCC(=O)NC2=O)C3=O)C1` (stereo not given) it is less than 10 nM; for `COc1cc(-c2cn(C)c(=O)c3cnccc23)cc(OC)c1CN(C)C12CC(C(=O)NCCOCCOCCNc3cccc4c3C(=O)N(C3CCC(=O)NC3=O)C4=O)(C1)C2` (stereo not given) it is less than 10 nM. On to `COc1cc(-c2cn(C)c(=O)c3cnccc23)cc(OC)c1CN1CC2C1CCN2C(=O)CCOCCOc1cccc2c1C(=O)N(C1CCC(=O)NC1=O)C2=O` (stereo not given), for which the IC50 was less than 10 nM. The result for `COc1cc(-c2cn(C)c(=O)c3cnccc23)cc(OC)c1CN1CC2(CC(NC(=O)CCOCCOc3cccc4c3C(=O)N(C3CCC(=O)NC3=O)C4=O)C2)C1` (stereo not given) reads “in the range around 55 nM”; that for `COc1cc(-c2cn(C)c(=O)c3cnccc23)cc(OC)c1CN(C)Cc1cn(CCCOc2ccc3c(c2)C(=O)N(C2CCC(=O)NC2=O)C3=O)nn1` (stereo not given), “in the range around 550 nM”; that for `COc1cc(-c2cn(C)c(=O)c3cnccc23)cc(OC)c1CN1CC(OCc2cn(CCCOc3ccc4c(c3)C(=O)N(C3CCC(=O)NC3=O)C4=O)nn2)C1` (stereo not given), “in the range around 550 nM”. On to `COc1cc(-c2cn(C)c(=O)c3cnccc23)cc(OC)c1CN1CCCC(OCc2cn(-c3ccc4c(c3)C(=O)N(C3CCC(=O)NC3=O)C4=O)nn2)C1` (stereo not given), for which the IC50 result is “in the range around 550 nM”. As for `COc1cc(-c2cn(C)c(=O)c3cnccc23)cc(OC)c1CN1CCC(COC2CCN(C(=O)CCOCCOc3cccc4c3C(=O)N(C3CCC(=O)NC3=O)C4=O)C2)CC1` (stereo not given), the IC50 result was “in the range around 55 nM”.

As for `COc1cc(-c2cn(C)c(=O)c3cnccc23)cc(OC)c1CN(C)C12CC(C(=O)NCCCCCNc3cccc4c3C(=O)N(C3CCC(=O)NC3=O)C4=O)(C1)C2` (stereo not given), the IC50 is less than 10 nM. The result for `COc1cc(-c2cn(C)c(=O)c3cnccc23)cc(OC)c1CN1CCC12CN(C(=O)CCOCCOc1ccc3c(c1)C(=O)N(C1CCC(=O)NC1=O)C3=O)C2` (stereo not given) reads “in the range around 550 nM”; that for `COc1cc(-c2cn(C)c(=O)c3cnccc23)cc(OC)c1CN1CCC2(C1)CN(C(=O)CCOCCOc1cccc3c1C(=O)N(C1CCC(=O)NC1=O)C3=O)C2` (stereo not given), “in the range around 55 nM”; that for `COc1cc(-c2cn(C)c(=O)c3cnccc23)cc(OC)c1CN(C)CC12CC(C(=O)NCCCCCNc3cccc4c3C(=O)N(C3CCC(=O)NC3=O)C4=O)(C1)C2` (stereo not given), less than 10 nM. For `COc1cc(-c2cn(C)c(=O)c3cnccc23)cc(OC)c1CN1CC[C@H]1C(=O)NCCCCCCCCNc1cccc2c1C(=O)N(C1CCC(=O)NC1=O)C2=O` (stereo not given in full), the IC50 is less than 10 nM. The result for `COc1cc(-c2cn(C)c(=O)c3cnccc23)cc(OC)c1CN1CCC(OCc2cn(CCCCCOc3ccc4c(c3)C(=O)N(C3CCC(=O)NC3=O)C4=O)nn2)C1` (stereo not given) reads less than 10 nM; that for `COc1cc(-c2cn(C)c(=O)c3cnccc23)cc(OC)c1CN1CCN(C(=O)COc2cccc3c2C(=O)N(C2CCC(=O)NC2=O)C3=O)CC1` (stereo not given), less than 10 nM; that for `COc1cc(-c2cn(C)c(=O)c3cnccc23)cc(OC)c1CN(C)CC1CC2(CCN(C(=O)CCOCCOc3ccc4c(c3)C(=O)N(C3CCC(=O)NC3=O)C4=O)CC2)C1` (stereo not given), “in the range around 55 nM”. The result for `COc1cc(-c2cn(C)c(=O)c3cnccc23)cc(OC)c1CN(C)C1CCC2CN(C(=O)CCOCCOc3ccc4c(c3)C(=O)N(C3CCC(=O)NC3=O)C4=O)CC21` (stereo not given) reads less than 10 nM. `COc1cc(-c2cn(C)c(=O)c3cnccc23)cc(OC)c1CN1CC(C(=O)NCCCCCCCCNc2cccc3c2C(=O)N(C2CCC(=O)NC2=O)C3=O)C1` (stereo not given) showed an IC50 of less than 10 nM. In the case of `COc1cc(-c2cn(C)c(=O)c3cnccc23)cc(OC)c1CN(C)Cc1cn(-c2ccc3c(c2)C(=O)N(C2CCC(=O)NC2=O)C3=O)nn1` (stereo not given), the IC50 result is “in the range around 550 nM”. Turning to `COc1cc(-c2cn(C)c(=O)c3cnccc23)cc(OC)c1CN1CCC(C2CCN(C(=O)CCOCCOc3cccc4c3C(=O)N(C3CCC(=O)NC3=O)C4=O)C2)CC1` (stereo not given), the concentration for half-maximal inhibition (IC50) entry was “in the range around 55 nM”.

Consider `COc1cc(-c2cn(C)c(=O)c3cnccc23)cc(OC)c1CN1CCC(OCc2cn(-c3ccc4c(c3)C(=O)N(C3CCC(=O)NC3=O)C4=O)nn2)C1` (stereo not given), for which the half-maximal inhibitory concentration (IC50) result was “in the range around 55 nM”.

For `COc1cc(-c2cn(C)c(=O)c3cnccc23)cc(OC)c1CN1CCCC(OCc2cn(CCOCCOc3ccc4c(c3)C(=O)N(C3CCC(=O)NC3=O)C4=O)nn2)C1` (stereo not given), the IC50 result was “in the range around 55 nM”. The entry for `COc1cc(-c2cn(C)c(=O)c3cnccc23)cc(OC)c1CN(C)CCCOCCN1CCN(c2ccc3c(c2)C(=O)N(C2CCC(=O)NC2=O)C3=O)CC1` (stereo not given) is “in the range around 55 nM”; for `COc1cc(-c2cn(C)c(=O)c3cnccc23)cc(OC)c1CN(C)C12CC(NC(=O)CCOCCOCCNc3cccc4c3C(=O)N(C3CCC(=O)NC3=O)C4=O)(C1)C2` (stereo not given) it is less than 10 nM; for `COc1cc(-c2cn(C)c(=O)c3cnccc23)cc(OC)c1CN(C)C12CC(NC(=O)CCCCCOc3cccc4c3C(=O)N(C3CCC(=O)NC3=O)C4=O)(C1)C2` (stereo not given) it is less than 10 nM.

Take `COc1cc(-c2cn(C)c(=O)c3cnccc23)cc(OC)c1CN(C)CC1CC2(CCN(C(=O)CCOCCOc3cccc4c3C(=O)N(C3CCC(=O)NC3=O)C4=O)CC2)O1` (stereo not given): the 50% inhibitory concentration (IC50) entry is “in the range around 55 nM”. Consider `COc1cc(-c2cn(C)c(=O)c3cnccc23)cc(OC)c1CN1CC(S(=O)(=O)NCCCCCNc2ccc3c(c2)C(=O)N(C2CCC(=O)NC2=O)C3=O)C1` (stereo not given), for which the half-maximal inhibitory concentration (IC50) is less than 10 nM.
